According to US9290487B2, “Pharmaceutical composition for treating diabetes” (Ajinomoto Co., Inc., priority 2011, dated 2016):
pEC50: −log10 of the molar value.

Target: human GYS1 (glycogen synthase) (Homo sapiens (Human), UniProt P13807)
Experiment: Measurement of glycogen synthase activity (coupled pyruvate kinase/lactate dehydrogenase assay, absorbance at 340 nm)
Assay type: biochemical
Conditions: concentration inducing relative activity of 50% (100% = Ex. 1 of WO/2011/058154 at 10 μM); incubation at 30° C. for 25 minutes (Examples 1 to 10)
Procedure: A human GYS1 expression plasmid (pCDNA3.1(+)-hGYS1) was constructed by the following method. Using a human skeletal muscle cDNA of Human MTC Panel I (Takara Bio Inc., 636742) as a template, a human GYS1 gene was amplified by a PCR method using cloning primers (Forward Primer: ATGCCTTTAAACCGCAC (SEQ ID NO: 1), Reverse Primer: TTAGTTACGCTCCTCGC (SEQ ID NO: 2)). Using the amplified human GYS1 sequence as a template, a restriction enzyme sequence was added by a PCR method using sub-cloning primers (Forward Primer: […] (SEQ ID NO: 3), Reverse Primer: […] (SEQ ID NO: 4)). Then, the human GYS1 gene was introduced between a Xho I site and a Xba I site of pCDNA3.1(+) (Invitrogen Corporation, V790-20).
Glycogen synthase was prepared by the following method according to the published article (THE JOURNAL OF BIOLOGICAL CHEMISTRY Vol. 269, No. 41, 25534-25542, 1994). Human kidney-derived HEK293T cells were seeded in a dish (Thermo Fisher Scientific Inc., 168381) using a 10% FBS-containing DMEM (Nacalai Tesque, Inc., 0845874) medium, and cultured overnight. Then, using Lipofectamine LTX (Invitrogen Corporation, 15338-100), the human GYS1 expression vector was transfected according to the attached manual. After culturing under conditions of 37° C. and 5% CO2 for 2 days, the resultant was dissolved in a lysis buffer (50 mM Tris-HCl (pH 8.0), 10 mM EDTA, 2 mM EGTA, 100 mM NaF, 1 mM PMSF, 1 mM DTT, 1× Complete (Roche Diagnostics K. K., 1873580)), homogenized, and then centrifuged at 16000×g at 4° C. for 15 minutes. To the precipitated fraction, a lysis buffer was added. Re-dissolved fractions were used as glycogen synthase for evaluation.
The glycogen synthase activity was measured by the following method. To a polystyrene 96-well plate, a solution containing 30 mM glycylglycine (pH 7.3), 40 mM KCl, 20 mM MgCl2, 9.2% DMSO containing one of the test compounds at various concentrations, and 10 mM glucose-6-phosphate (Sigma-Aldrich Corporation, G7879) was added by 12 μL/well.
Next, a substrate solution containing 30 mM glycylglycine (pH 7.3), 4.3 mg/mL of glycogen (Sigma-Aldrich Corporation, G8876), 21.6 mM UDP-glucose (Sigma-Aldrich Corporation, U4625), 21.6 mM phosphoenolpyruvic acid (Sigma-Aldrich Corporation, P0564), and 4.05 mM NADH (Sigma-Aldrich Corporation, N8129) was added by 18 μL/well.
Further, an enzyme solution containing 50 mM Tris-HCl (pH 8.0), 27 mM DTT (Nacalai Tesque, Inc., 14128-04), 0.2 mg/mL of bovine serum albumin, 0.17 mg/mL of the glycogen synthase, 1.5 μL of a pyruvate kinase/lactate dehydrogenase solution (Sigma-Aldrich Corporation, P0294) was added by 18 μL/well to prepare a reaction solution. After the reaction solution was incubated (at 30° C. for 25 minutes for Examples 1 to 10, at 37° C. for 20 minutes for Examples 11 to 75), the absorbance at 340 nm was measured using Benchmark Plus (Bio-Rad Laboratories, Inc.).
The activities of the test compounds were calculated by the following method. The change in the absorbance (ΔA340) was calculated by subtracting the absorbance at 340 nm of the reaction solution containing the compound and DMSO from the absorbance at 340 nm of a reaction solution not containing the compound but containing only DMSO. The ΔA340 of the reaction solution containing the compound of Example 1 in WO/2011/058154 at the final concentration of 10 μM was taken as 100% to calculate the relative activity (%) of the test compounds at various concentrations. EC50 representing the concentration of the compound which induces an increase in the relative activity to 50% was calculated using XLfit (idbs).

human GYS1 (glycogen synthase), sequence (P13807 whole entry): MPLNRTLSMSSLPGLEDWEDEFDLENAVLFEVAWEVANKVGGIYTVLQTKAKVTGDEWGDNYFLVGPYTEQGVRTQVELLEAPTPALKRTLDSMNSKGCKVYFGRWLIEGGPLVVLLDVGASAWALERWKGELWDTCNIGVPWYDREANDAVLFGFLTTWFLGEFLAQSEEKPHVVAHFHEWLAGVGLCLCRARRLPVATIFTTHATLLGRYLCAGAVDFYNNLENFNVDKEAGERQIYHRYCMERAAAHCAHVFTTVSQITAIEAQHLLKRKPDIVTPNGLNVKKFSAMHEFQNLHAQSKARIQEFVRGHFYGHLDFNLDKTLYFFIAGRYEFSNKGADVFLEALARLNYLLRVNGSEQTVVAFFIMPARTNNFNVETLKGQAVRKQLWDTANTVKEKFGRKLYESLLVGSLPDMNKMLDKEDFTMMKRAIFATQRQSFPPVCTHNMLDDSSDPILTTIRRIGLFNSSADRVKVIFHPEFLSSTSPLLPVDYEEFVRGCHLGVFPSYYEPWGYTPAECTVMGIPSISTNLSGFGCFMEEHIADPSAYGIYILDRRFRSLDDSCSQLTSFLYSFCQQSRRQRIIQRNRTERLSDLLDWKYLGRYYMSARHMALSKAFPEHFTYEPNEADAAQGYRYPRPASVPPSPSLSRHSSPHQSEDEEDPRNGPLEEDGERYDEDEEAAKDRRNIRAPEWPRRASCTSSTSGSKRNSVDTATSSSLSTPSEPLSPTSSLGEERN

Row | pEC50 | Structure (SMILES)
1 | 6.23 | CN(CC(=O)O)C(=O)c1cccc(COc2ccc(-c3cc(F)cc4c3OCC4)cc2)c1 [compound of Ex. 2, N-(3-{[4-(5-fluoro-2,3-dihydro-1-benzofuran-7-yl)phenoxy]methyl}benzoyl)-N-methylglycine]
2 | 6.96 | O=C(O)[C@@H]1CCCN1C(=O)c1cccc(COc2ccc(-c3ccc(F)c4ccoc34)cc2)c1 [compound of Ex. 3, 1-(3-{[4-(4-fluoro-1-benzofuran-7-yl)phenoxy]methyl}benzoyl)-L-proline]
3 | 6.48 | O=C(O)[C@@H]1CCCN1C(=O)c1cccc(COc2ccc(-c3ccc4occc4c3)cc2)c1 [compound of Ex. 6]
4 | 6.09 | Cc1cc2cccc(-c3ccc(OCc4cccc(C(=O)N5CCC[C@H]5C(=O)O)c4)cc3)c2o1 [compound of Ex. 8]
5 | 6.46 | O=C(O)[C@@H]1CCCN1C(=O)c1cccc(COc2ccc(-c3ccc(F)c4c3OCC4)cc2)c1 [compound of Ex. 10]

Same assay, conditions: concentration inducing relative activity of 50% (100% = Ex. 1 of WO/2011/058154 at 10 μM); incubation at 37° C. for 20 minutes (Examples 11 to 75)

Row | pEC50 | Structure (SMILES)
6 | 6.46 | O=C(O)[C@@H]1CCCN1C(=O)c1cccc(COc2ccc(-c3cc(F)cc4ccoc34)cc2)c1 [compound of Ex. 12, 1-(3-{[4-(5-fluoro-1-benzofuran-7-yl)phenoxy]methyl}benzoyl)-L-proline]
7 | 6.57 | O=C(O)[C@@H]1CCCN1C(=O)c1cccc(COc2ccc(-c3ccc(F)c4c3OCO4)cc2)c1 [compound of Ex. 13, 1-(3-{[4-(7-fluoro-1,3-benzodioxol-4-yl)phenoxy]methyl}benzoyl)-L-proline]
8 | 7.15 | O=C(O)[C@@H]1CCCN1C(=O)c1cccc(COc2ccc(-c3cc(F)c4occc4c3)cc2)c1 [compound of Ex. 14, 1-(3-{[4-(7-fluoro-1-benzofuran-5-yl)phenoxy]methyl}benzoyl)-L-proline]
9 | 7.46 | O=C(O)[C@@H]1CCCN1C(=O)c1cccc(COc2ccc(-c3cc4ccoc4c(F)c3F)cc2)c1 [compound of Ex. 16, 1-(3-{[4-(6,7-difluoro-1-benzofuran-5-yl)phenoxy]methyl}benzoyl)-L-proline]
10 | 6.57 | O=C(O)[C@@H]1CCCN1C(=O)c1cccc(COc2ccc(-c3cc(F)c4occc4c3F)cc2)c1 [compound of Ex. 17, 1-(3-{[4-(4,7-difluoro-1-benzofuran-5-yl)phenoxy]methyl}benzoyl)-L-proline]
11 | 7.19 | O=C(O)[C@@H]1CCCN1C(=O)c1cccc(COc2ccc(-c3c(F)cc(F)c4ccoc34)cc2)c1 [compound of Ex. 20, 1-(3-{[4-(4,6-difluoro-1-benzofuran-7-yl)phenoxy]methyl}benzoyl)-L-proline]
12 | 7.27 | Cc1coc2c(-c3ccc(OCc4cccc(C(=O)N5CCC[C@H]5C(=O)O)c4)cc3)cc(F)c(F)c12 [compound of Ex. 21, 1-(3-{[4-(4,5-difluoro-3-methyl-1-benzofuran-7-yl)phenoxy]methyl}benzoyl)-L-proline]
13 | 6.96 | Cc1cc2c(F)c(F)cc(-c3ccc(OCc4cccc(C(=O)N5CCC[C@H]5C(=O)O)c4)cc3)c2o1 [compound of Ex. 23, 1-(3-{[4-(4,5-difluoro-2-methyl-1-benzofuran-7-yl)phenoxy]methyl}benzoyl)-L-proline]
14 | 6.17 | O=C(O)[C@@H]1CCCN1C(=O)c1cccc(COc2ccc(-c3cccc4c3CCC4)cc2)c1 [compound of Ex. 24, 1-(3-{[4-(2,3-dihydro-1H-inden-4-yl)phenoxy]methyl}benzoyl)-L-proline]
15 | 6.40 | O=C(O)[C@@H]1CCCN1C(=O)c1cccc(COc2ccc(-c3ccc(F)c4occc34)cc2)c1 [compound of Ex. 25, 1-(3-{[4-(7-fluoro-1-benzofuran-4-yl)phenoxy]methyl}benzoyl)-L-proline]
16 | 6.68 | O=C(O)[C@@H]1CCCN1C(=O)c1cccc(COc2ccc(-c3ccc(F)c4c3C=CCO4)cc2)c1 [compound of Ex. 27, 1-(3-{[4-(8-fluoro-2H-chromen-5-yl)phenoxy]methyl}benzoyl)-L-proline]
17 | 6.05 | O=C(O)[C@@H]1CCCN1C(=O)c1cccc(COc2ccc(-c3cccc4ccsc34)cc2)c1 [compound of Ex. 28, 1-(3-{[4-(1-benzothien-7-yl)phenoxy]methyl}benzoyl)-L-proline]
